Test results: patent US7781199B2, “Identification of a JAK2 mutation involved in Vaquez Polyglobulia” (priority 2004, dated 2010)
Entries after “also recorded” stand apart in the source; their conditions may differ.

Assays:
V617F JAK2 = assay: Expression of V617F JAK2 in HEL cells after siRNA treatment; assay type: cell-based, human; details: 24 hours after treatment (FIGS. 8 and 9)
Description: FIGS. 8 and 9: Expression of V617F Jak2 in HEL cells is reduced 24 hours after treatment with siRNA specific to JAK2 V617F Jak2 (siRNA #1, 3 and 4).
Lanes 0 to 6: HEL cells treated (1 to 6) or non-treated (0) with siRNA V617F Jak2.
Lane C+: 293HEK cells transfected with the V617F Jak2RV vector
(§1) The results are shown FIGS. 8, 9 and 10.

wild-type JAK2 = assay: Expression of wild-type JAK2 in K562 cells after siRNA treatment; assay type: cell-based, human; details: 24 hours after treatment (FIG. 10)
Description: FIG. 10: Level of WT Jak2 expression in K562 cells remains unchanged 24 hours after treatment with siRNA specific to Jak2 V617.
Lane Je: K562 cells treated with siRNA WT Jak2
Lanes 0 to 6: K562 cells treated with siRNA V617F Jak2
Lane C−: 293HEK (no expression of JAK2).
as §1

Row | Substance | expression of V617F Jak2 protein (V617F JAK2) | level of WT Jak2 expression (wild-type JAK2)
1 | siRNA 4: siRNA specific to the V617F JAK2 mutation; said to correspond to SEQ ID No 27 (probably No 31, GAGUAUGUUUCUGUGGAGA) (listed as RNA, chemistry not given here) | reduced; also recorded: inhibit | without inhibiting
2 | siRNA 3: siRNA specific to the V617F JAK2 mutation; said to correspond to SEQ ID No 26 (probably No 30, GGAGUAUGUUUCUGUGGAG) (listed as RNA, chemistry not given here) | reduced; also recorded: inhibit | without inhibiting
3 | siRNA 1: siRNA specific to the V617F JAK2 mutation; said to correspond to SEQ ID No 25 (probably No 29, UGGAGUAUGUUUCUGUGGA) (listed as RNA, chemistry not given here) | reduced; also recorded: inhibit | without inhibiting
